Reference: patent publication US20060019312A1, “CIS-interactions between MHC molecules and co-expressed proteins, related neurological and non-neurological disorders and related therapeutic/diagnostic utilities” (priority 2004, published 2006)

Tested on: GluR1 / MHC class I (b2m)
Assay: Co-immunoprecipitation of GluR1 with anti-b2m antibodies from brain slices, Western blot with anti-GluR1
Format: cell-based, mouse
Conditions: NMDA 40 micromolar in ACSF, 3 minutes, 30 min wash
Protocol: FIG. 6 is a representation of a Western blot which illustrates that the NMDA-dependent Glutamate receptor co-immunoprecipitates with an MHC Class I molecule; 400-micron-thick slices of adult mouse brain (wild type or b2m-/-TAP-/- [MHC class I-deficient]) were cut and allowed to recover in oxygenated (95% O2, 5% CO2) artifical cerebro-spinal fluid (ACSF) for 1 hour at room temperature; a subset of slices were then transferred to a recording chamber and allowed to recover for 40 min in flowing oxygenated ACSF (2 ml/minute); these slices were treated with NMDA (40 micromolar in ACSF, 3 minutes) and then washed for 30 min in oxygenated ACSF; at this time, all slices (treated and untreated) were homogenized as below and processed for immunoprecipitation with antibodies against b2m, IgG, or GluR1, and the resulting precipitates were probed in Western blots with antibodies against GluR1.
Hippocampal slice (400 um) samples were prepared by homogenizing tissue in NP40 Lysis buffer (50 mM Tris, 150 mM NaCl, 1 mM EDTA, 1% NP40, pH 7.6) with protease inhibitors (1 ug/mL aprotinin, 1 ug/mL leupeptin, 1 ug/mL pepstatin, 1 mM Na orthovanadate, 1 mM PMSF, phosphatase inhibitor cocktail sigma, 1:100). After letting the tissue sit on ice for 15 min., samples were centrifuged at 13,000 rpm, 4°, for 10 min. […]

CN[C@H](CC(=O)O)C(=O)O [NMDA]
co-immunoprecipitation of GluR1 with anti-b2m antibodies (MHC-deficient (b2m-/- TAP-/-; KO) adult mouse brain slices): fails to induce coimmunoprecipitation of GluR1 | co-immunoprecipitation of GluR1 with antibodies against the light chain of MHC class I (b2m) (WT adult mouse brain slices): co-precipitates GluR1 only after NMDA treatment
